Assay results taken from patent US11466023B2, “Combination of a Mcl-1 inhibitor and a standard of care treatment for hematologic cancers, uses and pharmaceutical compositions thereof” (LES LABORATOIRES SERVIER, priority 2017, dated 2022).
Where two headings read alike, the source gives them in different places.

Columns and labels:
[1] = test system: ML-2 AML cell line; experiment: Single agent cell viability (CellTiterGlo); type: cell-based; conditions: 72 h; ML-2, single agent, 3 days incubation, CellTiterGlo; read-out: IC50
Method: (§1) Cell lines were cultured at 37° C. in a humidified atmosphere containing 5% CO2 and expanded in T-150 flasks. […] In order to analyse the activity of the compounds as single agents, cells were seeded and treated with nine 2-fold serial dilutions of each compound dispensed individually directly into the cell assay plates. […] All the experiments were performed in triplicates. Luminescence was quantified on a multipurpose plate reader. Single agent IC50s were calculated using standard four-parametric curve fitting.

[2] = test system: THP-1 AML cell line; experiment: Single agent cell viability (CellTiterGlo); type: cell-based; conditions: Homo sapiens, 72 h; THP-1, single agent, 3 days incubation, CellTiterGlo; read-out: IC50
Method: as §1

[3] = test system: OCI-AML3 AML cell line; experiment: Single agent cell viability (CellTiterGlo); type: cell-based; conditions: Homo sapiens, OCI-AML-3, 72 h; OCI-AML3, single agent, 3 days incubation, CellTiterGlo; read-out: IC50
Method: as §1

[4] = test system: MV4; 11 AML cell line; experiment: Single agent cell viability (CellTiterGlo); type: cell-based; conditions: Homo sapiens, 72 h; MV4; 11, single agent, 3 days incubation, CellTiterGlo; read-out: IC50
Method: as §1

[5] = test system: KG1a AML cell line; experiment: Single agent cell viability (CellTiterGlo); type: cell-based; conditions: Homo sapiens, KG-1a, 72 h; KG1a, single agent, 3 days incubation, CellTiterGlo; read-out: IC50
Method: as §1

[6] = test system: GDM-1 AML cell line; experiment: Single agent cell viability (CellTiterGlo); type: cell-based; conditions: Homo sapiens, 72 h; GDM-1, single agent, 3 days incubation, CellTiterGlo; read-out: IC50
Method: as §1

[7] = test system: EOL-1 AML cell line; experiment: Single agent cell viability (CellTiterGlo); type: cell-based; conditions: Homo sapiens, EOL1, 72 h; EOL-1, single agent, 3 days incubation, CellTiterGlo; read-out: IC50
Method: as §1

[8] = test system: PL-21 AML cell line; experiment: Single agent cell viability (CellTiterGlo); type: cell-based; conditions: 72 h; PL-21, single agent, 3 days incubation, CellTiterGlo; read-out: IC50
Method: as §1

[9] = test system: Nomo-1 AML cell line; experiment: Single agent cell viability (CellTiterGlo); type: cell-based; conditions: Homo sapiens, 72 h; Nomo-1, single agent, 3 days incubation, CellTiterGlo; read-out: IC50
Method: as §1

[10] = test system: MOLM-13 AML cell line; experiment: Single agent cell viability (CellTiterGlo); type: cell-based; conditions: Homo sapiens, 72 h; MOLM-13, single agent, 3 days incubation, CellTiterGlo; read-out: IC50
Method: as §1

[11] = test system: Kasumi-1 AML cell line; experiment: Single agent cell viability (CellTiterGlo); type: cell-based; conditions: Homo sapiens, 72 h; Kasumi-1, single agent, 3 days incubation, CellTiterGlo; read-out: IC50
Method: as §1

[12] = test system: KG1 AML cell line; experiment: Single agent cell viability (CellTiterGlo); type: cell-based; conditions: 72 h; KG1, single agent, 3 days incubation, CellTiterGlo; read-out: IC50
Method: as §1

[13] = test system: HL-60 AML cell line; experiment: Single agent cell viability (CellTiterGlo); type: cell-based; conditions: Homo sapiens, 72 h; HL-60, single agent, 3 days incubation, CellTiterGlo; read-out: IC50
Method: as §1

[14] = test system: mononuclear cells from AML patient samples; experiment: Cell viability assay (Sytox blue flow cytometry) in primary AML samples; type: cell-based, human; conditions: Homo sapiens, 48 h, combination at 1:1 ratio, read-out: 50% lethal concentration (LC50)
Method: Bone marrow samples from patients with AML were collected after informed consent in accordance with guidelines approved by The Alfred Hospital Human research ethics committee.
Mononuclear cells were isolated by density-gradient centrifugation Ficoll-Hypaque (GE Healthcare, Australia) density-gradient centrifugation and red cell lysis was performed using 0.156 M NH4Cl, 0.017 M Tris-HCl pH 7.2 as previously described (Rijal et al., Blood 2015, 125, 2815-2824). Cells were then re-suspended in phosphate-buffered saline containing 2% Fetal Bovine serum (FBS; Sigma, Australia). Mononuclear cells were then suspended in RPMI-1640 (GIBCO, Australia) medium containing penicillin and streptomycin (GIBCO) and heat inactivated fetal bovine serum 15% (Sigma). Cells were washed in phosphate-buffered saline (PBS) containing 2% FBS prior to use.
Freshly purified mononuclear cells from AML patient samples were adjusted to a concentration of 2.5×10^5/mL and 100 μL of cells aliquoted per well into 96 well plates (Sigma). Cells were then treated with idarubicin and Compound 2 over a […] concentration range from 1 nM to 10 μM for 48 hours. For combinations assays, drugs were added at a 1:1 ratio from 1 nM to 10 μM and cells were incubated at 37° C. 5% CO2. Cells were then stained with Sytox blue nucleic acid stain (Invitrogen, Australia) and fluorescence measured by flow cytometric analysis using the LSR-II Fortessa (Becton Dickinson, Australia). FACSDiva software was used for data collection, and FlowJo software for analysis. Blast cells were gated using forward and side scatter properties. Viable cells excluding Sytox blue were determined at 6 concentrations for each drug and the 50% lethal concentration (LC50, in μM) determined.

Work on `CC(=O)[C@]1(O)Cc2c(O)c3c(c(O)c2[C@@H](O[C@H]2C[C@H](N)[C@H](O)[C@H](C)O2)C1)C(=O)c1ccccc1C3=O` [Idarubicin, idarubicin] yielded an IC50 [1] of 10 nM, an IC50 [2] of 24 nM and an IC50 [3] of 20 nM. It also gave an IC50 [4] of 1 nM, an IC50 [5] of 10 nM and an IC50 [6] of 8 nM. For the same molecule, the IC50 [7] was 2 nM, the IC50 [8] was 23 nM and the IC50 [9] was 28 nM. It also gave an IC50 [10] of 3 nM, an IC50 [11] of 3 nM and an IC50 [12] of 6 nM. The IC50 [13] was 2 nM, the CC50 ([14]; Patient AML 6200840, 48 hours) was 384 nM and the CC50 ([14]; Patient AML AH0131936, 48 hours) was 886 nM. For the same molecule, the CC50 ([14]; Patient AML AH0465385, 48 hours) was 5130 nM, the CC50 ([14]; Patient AML AH0607688, 48 hours) was 593 nM and the CC50 ([14]; Patient AML AH0979006, 48 hours) was 1.07 nM. The CC50 ([14]; Patient AML AH1081582, 48 hours) was 184 nM, the CC50 ([14]; Patient AML AH1228742, 48 hours) was 404000 nM and the CC50 ([14]; Patient AML AH6120264, 48 hours) was 328 nM. For the same molecule, the CC50 ([14]; Patient AML AH6181414_2, 48 hours) was 3470 nM, the CC50 ([14]; Patient AML AH6202849, 48 hours) was 2870 nM and the CC50 ([14]; Patient AML AH6208160, 48 hours) was 1750 nM. The CC50 ([14]; Patient AML AH6208654, 48 hours) was 308 nM, the CC50 ([14]; Patient AML AH6210946, 48 hours) was 105 nM and the CC50 ([14]; Patient AML AH6214498, 48 hours) was 1.11 nM. It also gave a CC50 ([14]; Patient AML AH6217528, 48 hours) of 33.5 nM, a CC50 ([14]; Patient AML AH6219953, 48 hours) of 4370 nM and a CC50 ([14]; Patient AML AH6220847, 48 hours) of 14.4 nM. It also gave a CC50 ([14]; Patient AML AH6223646, 48 hours) of 315 nM, a CC50 ([14]; Patient AML AH6224104, 48 hours) of 192000 nM and a CC50 ([14]; Patient AML AH6229985, 48 hours) of 1.38 nM. For the same molecule, the CC50 ([14]; Patient AML AH6607085, 48 hours) was 563 nM, the CC50 ([14]; Patient AML AH6615742, 48 hours) was 2930 nM and the CC50 ([14]; Patient AML AH6627892, 48 hours) was 2200 nM.
